Data from PubChem BioAssay AID248 (DTP/NCI, 2004).
Several values for one entry are separate records, joined by “and”; a condition that tells them apart may be missing. Equal values may be shown once. Inconclusive results and toxic doses are left out. Rule as the data show it: active = T/C of 150% or more; inactive = T/C below 125%.

Test system: L1210 leukemia ip in BDF1 mice, survival T/C
Test: NCI In Vivo Anticancer Drug Screen. Data for tumor model L1210 Leukemia (intraperitoneal) in B6D2F1 (BDF1) mice
Conditions: endpoint: mean survival time, higher = longer survival
Procedure, shortened: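 Antitumor effect is assessed in tumor-bearing animals. Survival in the compound arm is compared with a vehicle-dosed control arm and expressed as their quotient.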

[1] = dose: 100.0 mg/kg/injection, schedule: Q01DX009 (ip), vehicle: Klucel (hydroxypropylcellulose) (HPC)

Measured: T/C

c1ccc([Se+](c2ccccc2)c2ccccc2)cc1
inactive: dose: 0.22 mg/kg/injection, schedule: Q01DX009 (ip), vehicle: Klucel (hydroxypropylcellulose) (HPC) 98 % of control | dose: 0.39 mg/kg/injection, schedule: Q01DX009 (ip), vehicle: saline 94 % of control | dose: 0.45 mg/kg/injection, schedule: Q01DX009 (ip), vehicle: Klucel (hydroxypropylcellulose) (HPC) 110 % of control | dose: 0.78 mg/kg/injection, schedule: Q01DX009 (ip), vehicle: saline 97 % of control | dose: 1.56 mg/kg/injection, schedule: Q01DX009 (ip), vehicle: saline 87 % of control

CC(C)(C)c1ccc2oc(-c3ccc(-c4nc5cc(C(C)(C)C)ccc5o4)s3)nc2c1
inactive: dose: 100.0 mg/kg/injection, schedule: Q04DX003 (ip), vehicle: gum acacia 92 % of control | dose: 200.0 mg/kg/injection, schedule: Q04DX003 (ip), vehicle: gum acacia 99 % of control

CCCS(=O)(=O)N(CC(=O)O)Cc1ccccc1
inactive: dose: 50.0 mg/kg/injection, schedule: Q01DX009 (ip), vehicle: other 110 % of control | dose: 100.0 mg/kg/injection, schedule: Q01DX009 (ip), vehicle: other 106 % of control and 107 % of control | dose: 100.0 mg/kg/injection, schedule: Q04DX003 (ip), vehicle: saline with Tween-80 101 % of control | dose: 200.0 mg/kg/injection, schedule: Q01DX009 (ip), vehicle: other 112 % of control and 115 % of control | dose: 200.0 mg/kg/injection, schedule: Q04DX003 (ip), vehicle: saline with Tween-80 104 % of control | dose: 400.0 mg/kg/injection, schedule: Q01DX009 (ip), vehicle: other 104 % of control | dose: 400.0 mg/kg/injection, schedule: Q04DX003 (ip), vehicle: saline with Tween-80 100 % of control

O=[N+]([O-])CC(OCCCO)C(Cl)(Cl)Cl (centres undefined)
inactive: dose: 6.25 mg/kg/injection, schedule: Q01DX009 (ip), vehicle: saline with Tween-80 92 % of control | dose: 12.5 mg/kg/injection, schedule: Q01DX009 (ip), vehicle: saline with Tween-80 101 % of control | dose: 25.0 mg/kg/injection, schedule: Q01DX009 (ip), vehicle: saline with Tween-80 104 % of control | dose: 50.0 mg/kg/injection, schedule: Q01DX009 (ip), vehicle: saline with Tween-80 92 % of control and 91 % of control

O=C(c1ccc(Cl)cc1)c1cccc[n+]1Cc1ccccc1
inactive: dose: 12.5 mg/kg/injection, schedule: Q04DX003 (ip), vehicle: Klucel (hydroxypropylcellulose) (HPC) 102 % of control | dose: 25.0 mg/kg/injection, schedule: Q01DX009 (ip), vehicle: Klucel (hydroxypropylcellulose) (HPC) 103 % of control | dose: 25.0 mg/kg/injection, schedule: Q04DX003 (ip), vehicle: Klucel (hydroxypropylcellulose) (HPC) 101 % of control | dose: 50.0 mg/kg/injection, schedule: Q01DX009 (ip), vehicle: Klucel (hydroxypropylcellulose) (HPC) 103 % of control | dose: 50.0 mg/kg/injection, schedule: Q04DX003 (ip), vehicle: Klucel (hydroxypropylcellulose) (HPC) 94 % of control | [1] 119 % of control | dose: 100.0 mg/kg/injection, schedule: Q04DX003 (ip), vehicle: Klucel (hydroxypropylcellulose) (HPC) 97 % of control

CCCCCCCCCCCCCCCC[N+](C)(C)C1=C([O-])C(=O)N(c2ccc(Cl)c(Cl)c2)C1=O
inactive: dose: 50.0 mg/kg/injection, schedule: Q04DX002 (ip), vehicle: saline with Tween-80 94 % of control | dose: 100.0 mg/kg/injection, schedule: Q04DX002 (ip), vehicle: saline with Tween-80 94 % of control

CC(=O)C(C(C)=O)C(c1ccccc1)C(C(C)=O)C(C)=O
inactive: [1] 94 % of control | dose: 200.0 mg/kg/injection, schedule: Q01DX009 (ip), vehicle: Klucel (hydroxypropylcellulose) (HPC) 91 % of control
